Source: ChEMBL document CHEMBL1201862, “PubChem BioAssay data set” (2004)
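Results reflect a 48-hour exposure of cells in 96-well plates to compound at five concentrations. GI50 marks 50% less growth.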 Calls of active or inactive are those of the source. Rule as the data show it: active = GI50 up to about 1.1 µM and inactive = higher.

What was measured:
Assay in all cases: growth of human tumour cells (NCI), 48 h
786-0 = system: 786-0
A549 = system: A549
ACHN = system: ACHN
BT-549 = system: BT-549
CAKI-1 = system: CAKI-1
CCRF-CEM = system: CCRF-CEM
COLO 205 = system: COLO 205
DU-145 = system: DU-145
EKVX = system: EKVX
HCC 2998 = system: HCC 2998
HCT-116 = system: HCT-116
HCT-15 = system: HCT-15
HL-60 = system: HL-60
HOP-62 = system: HOP-62
HOP-92 = system: HOP-92
HT-29 = system: HT-29
Hs-578T = system: Hs-578T
IGROV-1 = system: IGROV-1
KM12 = system: KM12
LOX IMVI = system: LOX IMVI
M14 = system: M14
MCF7 = system: MCF7
MDA-MB-231 = system: MDA-MB-231
MDA-MB-435 = system: MDA-MB-435
MDA-N = system: MDA-N
MOLT-4 = system: MOLT-4
NCI-H226 = system: NCI-H226
NCI-H23 = system: NCI-H23
NCI-H460 = system: NCI-H460
NCI-H522 = system: NCI-H522
NCI/ADR-RES = system: NCI/ADR-RES
OVCAR-3 = system: OVCAR-3
OVCAR-4 = system: OVCAR-4
OVCAR-5 = system: OVCAR-5
OVCAR-8 = system: OVCAR-8
PC-3 = system: PC-3
RXF 393 = system: RXF 393
SF-268 = system: SF-268
SF-295 = system: SF-295
SF-539 = system: SF-539
SK-MEL-28 = system: SK-MEL-28
SK-MEL-2 = system: SK-MEL-2
SK-MEL-5 = system: SK-MEL-5
SK-OV-3 = system: SK-OV-3
SN12C = system: SN12C
SNB-19 = system: SNB-19
SNB-75 = system: SNB-75
SW-620 = system: SW-620
TK-10 = system: TK-10
U-251 = system: U-251
UACC-257 = system: UACC-257
UACC-62 = system: UACC-62
UO-31 = system: UO-31
K562 = system: K562
Malme-3M = system: Malme-3M
RPMI-8226 = system: RPMI-8226
SR = system: SR
A498 = system: A498

## COc1ccccc1/C=C1/Sc2scc(CC(=O)Nc3ccccc3)[n+]2C1=O
786-0
  GI50: 28.6 µM (inactive)
A549
  GI50: 31.5 µM (inactive)
ACHN
  GI50: 28.9 µM (inactive)
BT-549
  GI50: 15.3 µM (inactive)
CAKI-1
  GI50: 53 µM (inactive)
CCRF-CEM
  GI50: 17.7 µM (inactive)
COLO 205
  GI50: 20.4 µM (inactive)
DU-145
  GI50: 27.7 µM (inactive)
EKVX
  GI50: 30.9 µM (inactive)
HCC 2998
  GI50: 30.8 µM (inactive)
HCT-116
  GI50: 24.6 µM (inactive)
HCT-15
  GI50: 26.6 µM
HL-60
  GI50: 15 µM (inactive)
HOP-62
  GI50: 34 µM (inactive)
HOP-92
  GI50: 17 µM (inactive)
HT-29
  GI50: 42 µM (inactive)
Hs-578T
  GI50: 40.6 µM (inactive)
IGROV-1
  GI50: 38 µM (inactive)
KM12
  GI50: 19.7 µM (inactive)
LOX IMVI
  GI50: 39 µM (inactive)
M14
  GI50: 28.4 µM (inactive)
MCF7
  GI50: 31.4 µM (inactive)
MDA-MB-231
  GI50: 23 µM (inactive)
MDA-MB-435
  GI50: 28.4 µM (inactive)
MDA-N
  GI50: 20.2 µM (inactive)
MOLT-4
  GI50: 17.2 µM (inactive)
NCI-H226
  GI50: 20.3 µM (inactive)
NCI-H23
  GI50: 28.6 µM (inactive)
NCI-H460
  GI50: 29.5 µM (inactive)
NCI-H522
  GI50: 20.3 µM (inactive)
NCI/ADR-RES
  GI50: 19.8 µM (inactive)
OVCAR-3
  GI50: 16.9 µM (inactive)
OVCAR-4
  GI50: 21 µM (inactive)
OVCAR-5
  GI50: 47 µM (inactive)
OVCAR-8
  GI50: 31.8 µM (inactive)
PC-3
  GI50: 26 µM (inactive)
RXF 393
  GI50: 22.6 µM (inactive)
SF-268
  GI50: 47.6 µM (inactive)
SF-295
  GI50: 32.9 µM (inactive)
SF-539
  GI50: 36.3 µM (inactive)
SK-MEL-28
  GI50: 22.4 µM (inactive)
SK-MEL-2
  GI50: 19.1 µM (inactive)
SK-MEL-5
  GI50: 16 µM (inactive)
SK-OV-3
  GI50: 27.5 µM (inactive)
SN12C
  GI50: 31.3 µM (inactive)
SNB-19
  GI50: 29.1 µM (inactive)
SNB-75
  GI50: 26.9 µM (inactive)
SW-620
  GI50: 35 µM (inactive)
TK-10
  GI50: 25.2 µM (inactive)
U-251
  GI50: 33 µM (inactive)
UACC-257
  GI50: 25.1 µM (inactive)
UACC-62
  GI50: 14.4 µM (inactive)
UO-31
  GI50: 17.9 µM (inactive)

## CC1(C)CC2(C)CC1CC2O (stereo not drawn)
786-0
  GI50: > 100 µM (inactive)
A549
  GI50: > 100 µM (inactive)
BT-549
  GI50: > 100 µM (inactive)
CAKI-1
  GI50: > 100 µM (inactive)
CCRF-CEM
  GI50: > 100 µM (inactive)
COLO 205
  GI50: > 100 µM (inactive)
DU-145
  GI50: > 100 µM (inactive)
EKVX
  GI50: > 100 µM (inactive)
HCC 2998
  GI50: > 100 µM (inactive)
HCT-116
  GI50: > 100 µM (inactive)
HCT-15
  GI50: > 100 µM
HL-60
  GI50: > 100 µM (inactive)
HOP-62
  GI50: > 100 µM (inactive)
HT-29
  GI50: > 100 µM (inactive)
Hs-578T
  GI50: > 100 µM (inactive)
IGROV-1
  GI50: > 100 µM (inactive)
K562
  GI50: > 100 µM (inactive)
KM12
  GI50: > 100 µM (inactive)
LOX IMVI
  GI50: > 100 µM (inactive)
M14
  GI50: > 100 µM (inactive)
MCF7
  GI50: > 100 µM (inactive)
MDA-MB-231
  GI50: > 100 µM (inactive)
MDA-MB-435
  GI50: > 100 µM (inactive)
MDA-N
  GI50: > 100 µM (inactive)
MOLT-4
  GI50: > 100 µM (inactive)
Malme-3M
  GI50: > 100 µM (inactive)
NCI-H226
  GI50: > 100 µM (inactive)
NCI-H23
  GI50: > 100 µM (inactive)
NCI/ADR-RES
  GI50: > 100 µM (inactive)
OVCAR-3
  GI50: > 100 µM (inactive)
OVCAR-4
  GI50: > 100 µM (inactive)
OVCAR-5
  GI50: > 100 µM (inactive)
OVCAR-8
  GI50: > 100 µM (inactive)
PC-3
  GI50: > 100 µM (inactive)
RPMI-8226
  GI50: > 100 µM (inactive)
RXF 393
  GI50: > 100 µM (inactive)
SF-268
  GI50: > 100 µM (inactive)
SF-295
  GI50: > 100 µM (inactive)
SF-539
  GI50: > 100 µM (inactive)
SK-MEL-28
  GI50: > 100 µM (inactive)
SK-MEL-5
  GI50: > 100 µM (inactive)
SK-OV-3
  GI50: > 100 µM (inactive)
SN12C
  GI50: > 100 µM (inactive)
SNB-19
  GI50: > 100 µM (inactive)
SNB-75
  GI50: > 100 µM (inactive)
SR
  GI50: > 100 µM (inactive)
SW-620
  GI50: > 100 µM (inactive)
TK-10
  GI50: > 100 µM (inactive)
U-251
  GI50: > 100 µM (inactive)
UACC-257
  GI50: > 100 µM (inactive)
UACC-62
  GI50: > 100 µM (inactive)
UO-31
  GI50: > 100 µM (inactive)

## O=c1o[nH]/c(=N/c2ccccc2)n1-c1ccccc1
786-0
  GI50: > 100 µM (inactive)
A498
  GI50: > 100 µM (inactive)
A549
  GI50: > 100 µM (inactive)
ACHN
  GI50: > 100 µM (inactive)
BT-549
  GI50: > 100 µM (inactive)
CAKI-1
  GI50: > 100 µM (inactive)
CCRF-CEM
  GI50: > 100 µM (inactive)
COLO 205
  GI50: > 100 µM (inactive)
EKVX
  GI50: > 100 µM (inactive)
HCC 2998
  GI50: 93.3 µM (inactive)
HCT-116
  GI50: > 100 µM (inactive)
HCT-15
  GI50: > 100 µM
HL-60
  GI50: > 100 µM (inactive)
HOP-62
  GI50: > 100 µM (inactive)
HOP-92
  GI50: > 100 µM (inactive)
HT-29
  GI50: > 100 µM (inactive)
Hs-578T
  GI50: > 100 µM (inactive)
IGROV-1
  GI50: > 100 µM (inactive)
K562
  GI50: > 100 µM (inactive)
KM12
  GI50: > 100 µM (inactive)
LOX IMVI
  GI50: > 100 µM (inactive)
M14
  GI50: > 100 µM (inactive)
MCF7
  GI50: > 100 µM (inactive)
MDA-MB-231
  GI50: > 100 µM (inactive)
MDA-N
  GI50: > 100 µM (inactive)
MOLT-4
  GI50: > 100 µM (inactive)
Malme-3M
  GI50: > 100 µM (inactive)
NCI-H226
  GI50: > 100 µM (inactive)
NCI-H23
  GI50: > 100 µM (inactive)
NCI-H460
  GI50: > 100 µM (inactive)
NCI/ADR-RES
  GI50: > 100 µM (inactive)
OVCAR-3
  GI50: > 100 µM (inactive)
OVCAR-4
  GI50: > 100 µM (inactive)
OVCAR-5
  GI50: > 100 µM (inactive)
OVCAR-8
  GI50: > 100 µM (inactive)
PC-3
  GI50: > 100 µM (inactive)
RXF 393
  GI50: > 100 µM (inactive)
SF-295
  GI50: > 100 µM (inactive)
SF-539
  GI50: > 100 µM (inactive)
SK-MEL-28
  GI50: > 100 µM (inactive)
SK-MEL-2
  GI50: > 100 µM (inactive)
SK-MEL-5
  GI50: > 100 µM (inactive)
SK-OV-3
  GI50: > 100 µM (inactive)
SN12C
  GI50: > 100 µM (inactive)
SNB-19
  GI50: > 100 µM (inactive)
SNB-75
  GI50: > 100 µM (inactive)
SR
  GI50: > 100 µM (inactive)
SW-620
  GI50: > 100 µM (inactive)
TK-10
  GI50: > 100 µM (inactive)
U-251
  GI50: > 100 µM (inactive)
UACC-257
  GI50: > 100 µM (inactive)
UACC-62
  GI50: > 100 µM (inactive)
UO-31
  GI50: > 100 µM (inactive)
